Test results: patent publication US20080090805A1, “CB-1 MODULATING COMPOUNDS AND THEIR USE” (ACADIA PHARMACEUTICALS INC., priority 2005, published 2008)

target: CB1 (mutant) (Homo sapiens, UniProt P21554); assay: R-SAT functional receptor assay, CB1 (mutant, truncated after amino acid 417); type: cell-based; details: Appendix A; R-SAT CB1; receptor form (mutant or wild-type) not stated
Sequence (P21554 1-417, change not shown): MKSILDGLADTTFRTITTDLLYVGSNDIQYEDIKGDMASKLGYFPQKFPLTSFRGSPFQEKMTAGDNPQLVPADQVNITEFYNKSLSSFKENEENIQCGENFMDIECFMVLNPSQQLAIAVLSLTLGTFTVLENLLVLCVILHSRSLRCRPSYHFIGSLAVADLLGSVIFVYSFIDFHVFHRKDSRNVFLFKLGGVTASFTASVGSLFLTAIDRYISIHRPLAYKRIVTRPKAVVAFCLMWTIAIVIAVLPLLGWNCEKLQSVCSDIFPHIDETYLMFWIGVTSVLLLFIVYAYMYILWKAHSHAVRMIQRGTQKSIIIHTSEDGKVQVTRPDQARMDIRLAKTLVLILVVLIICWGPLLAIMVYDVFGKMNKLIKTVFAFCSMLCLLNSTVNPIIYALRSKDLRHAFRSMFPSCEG

pIC50	Compound
1.0	CONC(=O)c1ccc2c(c1)N=C(c1ccccc1Cl)c1ccccc1S2

same assay, conditions: Appendix A; R-SAT CB1; receptor form (mutant or wild-type) not stated; read-out: pIC50 (converted)

IC50 [nM]	Compound
25.1	O=C(NCCc1ccncc1)c1ccc2c(c1)N=C(c1ccc(F)cc1)c1ccccc1S2 [drawing 1031]
15.8	O=C(NCc1cccc(Cl)c1)c1ccc2c(c1)N=C(c1ccccc1)c1ccccc1S2 [drawing 899]
200	CONC(=O)c1ccc2c(c1)N=C(c1ccc(Cl)cc1F)c1ccccc1S2
79.4	COc1ccc(C2=Nc3cc(C(=O)NN4[C@H](C)CCC[C@@H]4C)ccc3Sc3ccccc32)cc1 [drawing 730]
100	O=C(NC1CCCCNC1=O)c1ccc2c(c1)N=C(c1ccc(Cl)cc1)c1ccccc1S2 (stereo not shown)
251	COc1ccc(C2=Nc3cc(C(=O)NC4CCCCNC4=O)ccc3Sc3ccccc32)cc1 (stereo not shown)
63.1	O=C(NCCc1cccnc1)c1ccc2c(c1)N=C(c1ccc(Cl)cc1)c1ccccc1S2 [drawing 638]
158	O=C(NN1CCCC1)c1ccc2c(c1)N=C(c1ccc(F)cc1)c1ccccc1S2
15.8	O=C(NCc1ccc(Cl)cc1Cl)c1ccc2c(c1)N=C(c1ccc(Cl)cc1)c1ccccc1S2 [drawing 901]
3.98	O=C(NN1CCCCCC1)c1ccc2c(c1)N=C(c1cccc(Cl)c1)c1ccccc1S2 [drawing 597]
12.6	CCCNC(=O)c1ccc2c(c1)N=C(c1ccc(Cl)cc1F)c1ccccc1S2 [drawing 851]

Further lines, the compound ahead of its results:

Compound	IC50 [nM]
O=C(NCc1ccccn1)c1ccc2c(c1)N=C(N1CCCCC1)c1ccccc1S2	158
CN1c2ccc(C(=O)NCc3ccc(F)cc3)cc2N=C(c2ccc(F)cc2)c2ccccc21 [drawing 752]	79.4
CCOCCNC(=O)c1ccc2c(c1)N=C(c1ccc(C(=O)OCC)cc1)c1ccccc1S2	158
CCCCNC(=O)c1ccc2c(c1)N=C(c1ccc(Cl)cn1)c1ccccc1S2 [drawing 813]	10
CC(C)NC(=O)c1ccc2c(c1)N=C(c1ccccn1)c1ccccc1S2	794
CC(C)NC(=O)c1ccc2c(c1)N=C(c1ccc(Cl)s1)c1ccccc1S2 [drawing 550]	39.8
CCCC1=Nc2cc(C(=O)NCCCN3CC(C)CC(C)C3)ccc2Sc2ccccc21 (stereo not shown)	631
Cc1cccnc1C1=Nc2cc(C(=O)NCc3cccnc3)ccc2Sc2ccccc21	> 126
CCCCNC(=O)c1ccc2c(c1)N=C(c1ccc(Cl)s1)c1cc(Cl)ccc1S2 [drawing 995]	25.1
O=C(NCc1cccc(Cl)c1)c1ccc2c(c1)N=C(N1CCCCC1)c1ccccc1[S+]2[O-] (stereo not shown) [drawing 758]	100
O=C(NCc1ccncc1)c1ccc2c(c1)N=C(c1ccccc1Cl)c1ccccc1S2	794
CCCC1=Nc2cc(C(=O)NCCN(CC)c3ccccc3)ccc2Sc2ccccc21 [drawing 885]	15.8
Cc1ccc(CNC(=O)c2ccc3c(c2)N=C(c2cccc(Cl)c2)c2ccccc2S3)o1 [drawing 623]	5.01
CC(CNC(=O)c1ccc2c(c1)N=C(C1CCCCC1)c1ccccc1S2)c1ccccc1 (stereo not shown) [drawing 783]	10
O=C(NCCc1cccnc1)c1ccc2c(c1)N=C(c1ccc(Cl)cc1Cl)c1ccccc1S2	200
Cc1ccsc1C1=Nc2cc(C(=O)NCCC(C)C)ccc2Sc2ccccc21 [drawing 945]	20
CC(C)CNC(=O)c1ccc2c(c1)N=C(c1ccsc1)c1ccccc1S2 [drawing 581]	3.16

same assay, conditions: Appendix A; R-SAT CB1; receptor form not stated; relative to SR141716 (100%)

Compound	% Inhibition [%]
O=C(NN1CCCCC1)c1ccc2c(c1)N=C(C1CCCCC1)c1ccccc1S2 [drawing 861]	100
O=C(NN1CCCCCC1)c1ccc2c(c1)N=C(c1cccc(F)c1)c1ccccc1S2 [drawing 883]	96

same assay, conditions: Appendix A; R-SAT CB1; receptor form not stated; relative to SR141716 (100%); read-out: % Inhibition

Emax [%]	Compound
94	O=C(NCCc1ccncc1)c1ccc2c(c1)N=C(c1ccc(F)cc1)c1ccccc1S2 [drawing 1031]
107	O=C(NCc1cccc(Cl)c1)c1ccc2c(c1)N=C(c1ccccc1)c1ccccc1S2 [drawing 899]
69	CONC(=O)c1ccc2c(c1)N=C(c1ccc(Cl)cc1F)c1ccccc1S2
99	COc1ccc(C2=Nc3cc(C(=O)NN4[C@H](C)CCC[C@@H]4C)ccc3Sc3ccccc32)cc1 [drawing 730]
81	O=C(NC1CCCCNC1=O)c1ccc2c(c1)N=C(c1ccc(Cl)cc1)c1ccccc1S2 (stereo not shown)
62	COc1ccc(C2=Nc3cc(C(=O)NC4CCCCNC4=O)ccc3Sc3ccccc32)cc1 (stereo not shown)
116	O=C(NCCc1cccnc1)c1ccc2c(c1)N=C(c1ccc(Cl)cc1)c1ccccc1S2 [drawing 638]
92	O=C(NN1CCCC1)c1ccc2c(c1)N=C(c1ccc(F)cc1)c1ccccc1S2
101	O=C(NCc1ccc(Cl)cc1Cl)c1ccc2c(c1)N=C(c1ccc(Cl)cc1)c1ccccc1S2 [drawing 901]
95	O=C(NN1CCCCCC1)c1ccc2c(c1)N=C(c1cccc(Cl)c1)c1ccccc1S2 [drawing 597]
101	CCCNC(=O)c1ccc2c(c1)N=C(c1ccc(Cl)cc1F)c1ccccc1S2 [drawing 851]

The next lines start with the compound.

Compound	Emax [%]
O=C(NCc1ccccn1)c1ccc2c(c1)N=C(N1CCCCC1)c1ccccc1S2	78
O=C(NCc1cccc(Cl)c1)c1ccc2c(c1)N=C(c1ccc(F)cc1)c1ccccc1[S+]2[O-] (stereo not shown) [drawing 670]	89
CN1c2ccc(C(=O)NCc3ccc(F)cc3)cc2N=C(c2ccc(F)cc2)c2ccccc21 [drawing 752]	91
CCCCNC(=O)c1ccc2c(c1)N=C(c1ccc(F)cc1)c1ccccc1S2 [drawing 785]	96
CCOCCNC(=O)c1ccc2c(c1)N=C(c1ccc(C(=O)OCC)cc1)c1ccccc1S2	77
CCCCNC(=O)c1ccc2c(c1)N=C(c1ccc(Cl)cn1)c1ccccc1S2 [drawing 813]	106
O=C(NN1CCCCC1)c1ccc2c(c1)N=C(C1CCCCC1)c1ccccc1C2	87
CC(C)NC(=O)c1ccc2c(c1)N=C(c1ccccn1)c1ccccc1S2	60
CC(C)NC(=O)c1ccc2c(c1)N=C(c1ccc(Cl)s1)c1ccccc1S2 [drawing 550]	78
CCCC1=Nc2cc(C(=O)NCCCN3CC(C)CC(C)C3)ccc2Sc2ccccc21 (stereo not shown)	136
Cc1ccc(CNC(=O)c2ccc3c(c2)N=C(c2cccc(F)c2)c2ccccc2S3)o1 [drawing 947]	69
Cc1cccnc1C1=Nc2cc(C(=O)NCc3cccnc3)ccc2Sc2ccccc21	39
CCCCNC(=O)c1ccc2c(c1)N=C(c1ccc(Cl)s1)c1cc(Cl)ccc1S2 [drawing 995]	107
O=C(NCc1cccc(Cl)c1)c1ccc2c(c1)N=C(N1CCCCC1)c1ccccc1[S+]2[O-] (stereo not shown) [drawing 758]	71
O=C(NCc1ccncc1)c1ccc2c(c1)N=C(c1ccccc1Cl)c1ccccc1S2	67
CCCC1=Nc2cc(C(=O)NCCN(CC)c3ccccc3)ccc2Sc2ccccc21 [drawing 885]	106
Cc1ccc(CNC(=O)c2ccc3c(c2)N=C(c2cccc(Cl)c2)c2ccccc2S3)o1 [drawing 623]	74
CONC(=O)c1ccc2c(c1)N=C(c1ccccc1Cl)c1ccccc1S2	-15
CC(CNC(=O)c1ccc2c(c1)N=C(C1CCCCC1)c1ccccc1S2)c1ccccc1 (stereo not shown) [drawing 783]	100
O=C(NCCc1cccnc1)c1ccc2c(c1)N=C(c1ccc(Cl)cc1Cl)c1ccccc1S2	74
Cc1ccsc1C1=Nc2cc(C(=O)NCCC(C)C)ccc2Sc2ccccc21 [drawing 945]	106
CC(C)CNC(=O)c1ccc2c(c1)N=C(c1ccsc1)c1ccccc1S2 [drawing 581]	90

same assay, conditions: pIC50, Appendix A; R-SAT CB1; receptor form (mutant or wild-type) not stated

Compound	IC50 [nM]
CCCCNC(=O)c1ccc2c(c1)N=C(c1ccc(F)cc1)c1ccccc1S2 [drawing 785]	10
Cc1ccc(CNC(=O)c2ccc3c(c2)N=C(c2cccc(F)c2)c2ccccc2S3)o1 [drawing 947]	20
O=C(NN1CCCCCC1)c1ccc2c(c1)N=C(c1cccc(F)c1)c1ccccc1S2 [drawing 883]	15.8
